≈ marks a conversion by molar mass, not a printed value. Calls of active or inactive are those of the source. No cut-off for these calls is given here. Peptide text beside a SMILES is read from it.
Key:
Amphibalanus improvisus [1] = assay: Anti-fouling activity against Balanus improvisus barnacle larvae assessed as inhibition of settlement propensity at 6 uM incubated for 4 days; assay type: functional, organism-based
Amphibalanus improvisus [2] = assay: Toxicity against Balanus improvisus barnacle larvae assessed as number of dead larvae at 0.06 to 6 uM incubated for 24 hrs; assay type: organism-based; settings: in vivo
Amphibalanus improvisus [3] = assay: Anti-fouling activity against Balanus improvisus barnacle larvae assessed as settlement propensity at 6 uM incubated for 4 days (reference value: 64 +/- 8%); assay type: functional
Escherichia coli [4] = assay: Antimicrobial activity against Escherichia coli ATCC 25922 up to 80 uM; assay type: functional, organism-based
Staphylococcus aureus [5] = assay: Antimicrobial activity against Staphylococcus aureus ATCC 29213 up to 80 uM; assay type: functional, organism-based
Amphibalanus improvisus [6] = assay: Anti-fouling activity against Balanus improvisus barnacle larvae assessed as inhibition of settlement propensity at 0.6 uM incubated for 4 days; assay type: functional, organism-based
Escherichia coli [7] = assay: Antimicrobial activity against Escherichia coli ATCC 25922; assay type: functional
Staphylococcus aureus [8] = assay: Antimicrobial activity against Staphylococcus aureus ATCC 29213; assay type: functional

Compound	inhibition (Amphibalanus improvisus [1])	Activity (Amphibalanus improvisus [2])	Activity (Amphibalanus improvisus [3])	Activity (Escherichia coli [4])	Activity (Staphylococcus aureus [5])	inhibition (Amphibalanus improvisus [6])	MIC (Escherichia coli [7])	MIC (Staphylococcus aureus [8])
[H][C@@]12CCCN1C(=O)[C@H](CC(C)C)NC(=O)[C@]1([H])CSSC[C@]([H])(NC(=O)[C@H](Cc3ccccc3)NC(=O)[C@@H](NC(=O)[C@@H]3CCCN3C(=O)[C@H](CO)NC(=O)[C@@H](NC(=O)[C@@H](N)CC(=O)O)C(C)C)CSSC[C@@H](C(=O)N[C@@H](CC(=O)O)C(=O)N[C@@H](C)C(=O)N[C@@H](CO)C(=O)N[C@@H](CCCNC(=N)N)C(=O)NCC(=O)N[C@H](C(=O)N[C@@H](CC(N)=O)C(=O)N3CCC[C@H]3C(=O)O)[C@@H](C)O)NC(=O)[C@H](CC(N)=O)NC(=O)[C@H](CC(=O)O)NC2=O)C(=O)N[C@@H](C(C)C)C(=O)N[C@@H](CCC(=O)O)C(=O)N[C@@H](CC(=O)O)C(=O)N[C@@H](CCC(=O)O)C(=O)N[C@@]([H])([C@@H](C)O)C(=O)N[C@@H](CO)C(=O)NCC(=O)N[C@@H](C)C(=O)N[C@@H](CCCCN)C(=O)N[C@@]([H])([C@@H](C)O)C(=O)N1 (HELM PEPTIDE1{D.V.S.P.C.F.C.V.E.D.E.T.S.G.A.K.T.C.L.P.D.N.C.D.A.S.R.G.T.N.P}$PEPTIDE1,PEPTIDE1,5:R3-23:R3|PEPTIDE1,PEPTIDE1,7:R3-18:R3$$$V2.0)	Active	Non-toxic	8%	inactive	inactive			
[H][C@@]12CCCN1C(=O)[C@H](C(C)C)NC(=O)[C@]1([H])CSSC[C@]([H])(NC(=O)[C@H](Cc3ccccc3)NC(=O)[C@@H](NC(=O)[C@@H]3CCCN3C(=O)[C@H](CO)NC(=O)[C@@H](NC(=O)[C@@H](N)CC(=O)O)C(C)C)CSSC[C@@H](C(=O)N[C@@H](CC(=O)O)C(=O)N[C@@H](C)C(=O)N[C@@H](CO)C(=O)N[C@@H](CCCNC(=N)N)C(=O)NCC(=O)N[C@H](C(=O)N[C@@H](CC(N)=O)C(=O)N3CCC[C@H]3C(=O)O)[C@@H](C)O)NC(=O)[C@H](CC(N)=O)NC(=O)[C@H](CC(=O)O)NC2=O)C(=O)N[C@@H](C(C)C)C(=O)N[C@@H](CCC(=O)O)C(=O)N[C@@H](CC(=O)O)C(=O)N[C@@H](CCC(=O)O)C(=O)N[C@@]([H])([C@@H](C)O)C(=O)N[C@@H](CO)C(=O)NCC(=O)N[C@@H](C)C(=O)N[C@@H](CCCCN)C(=O)N[C@@]([H])([C@@H](C)O)C(=O)N1 (HELM PEPTIDE1{D.V.S.P.C.F.C.V.E.D.E.T.S.G.A.K.T.C.V.P.D.N.C.D.A.S.R.G.T.N.P}$PEPTIDE1,PEPTIDE1,5:R3-23:R3|PEPTIDE1,PEPTIDE1,7:R3-18:R3$$$V2.0)	Active	Non-toxic	15%	inactive	inactive	Active		
CC[C@H](C)[C@H](NC(=O)[C@H](CCCCN)NC(=O)[C@H](CCC(=O)O)NC(=O)[C@H](CCCCN)NC(=O)[C@H](CO)NC(=O)[C@H](CCCCN)NC(=O)[C@H](CCCNC(=N)N)NC(=O)[C@H](Cc1ccccc1)NC(=O)[C@H](Cc1ccccc1)NC(=O)[C@H](CC(=O)O)NC(=O)CNC(=O)[C@H](CC(C)C)NC(=O)[C@@H](N)CC(C)C)C(=O)NCC(=O)N[C@@H](CCCCN)C(=O)N[C@@H](CCC(=O)O)C(=O)N[C@@H](Cc1ccccc1)C(=O)N[C@@H](CCCCN)C(=O)N[C@@H](CCCNC(=N)N)C(=O)N[C@H](C(=O)N[C@H](C(=O)N[C@@H](CCC(N)=O)C(=O)N[C@@H](CCCNC(=N)N)C(=O)N[C@H](C(=O)N[C@@H](CCCCN)C(=O)N[C@@H](CC(=O)O)C(=O)N[C@@H](Cc1ccccc1)C(=O)N[C@@H](CC(C)C)C(=O)N[C@@H](CCCNC(=N)N)C(=O)N[C@@H](CC(N)=O)C(=O)N[C@@H](CC(C)C)C(=O)N[C@H](C(=O)N1CCC[C@H]1C(=O)N[C@@H](CCCNC(=N)N)C(=O)N[C@H](C(=O)N[C@@H](CCC(=O)O)C(=O)N[C@@H](CO)C(=O)O)[C@@H](C)O)C(C)C)[C@@H](C)CC)C(C)C)[C@@H](C)CC [CATHELICIDIN]							1 µM (≈ 4.49 µg/mL)	1 µM (≈ 4.49 µg/mL)

Source: ChEMBL document CHEMBL3593201, “Isolation, Characterization, and Synthesis of the Barrettides: Disulfide-Containing Peptides from the Marine Sponge Geodia barretti” (J Nat Prod, 2015)
